{"source": "patent US10952431B2", "about": "“Releasable encapsulation compositions” (Battelle Memorial Institute, priority 2016, dated 2021)", "assay": "Particle size distribution before and after encapsulation", "format": "physicochemical", "conditions": "FIG. 6A, non-encapsulated", "description": "FIGS. 6A-6B show charts of the particle size distribution of TAED. […] Upon encapsulation, approximately 50% of the particles are distributed in the particle size range of 1 and 2 microns. This information also confirms the TAED is coated with the nonionic amphiphilic graft copolymer (PLMA-g-PEG)."}
{"molecule": "CC(=O)N(CCN(C(C)=O)C(C)=O)C(C)=O", "note": "[TAED, tetraacetylethylene-diamine]", "values": [{"measurement": "particle size (majority of particles)", "value": "20-30 microns"}]}
